The subject of the assay is Myo5 SH3 domain. The experiment in a line: SPOT analysis of cellulose-bound peptides (WISE), Myo5 SH3 domain (Dataset S4). Type of assay: binding, Saccharomyces cerevisiae. The following applies: for The normalized value in BLU units: Myo5 SH3 domain.
The mark [1] stands for this setting: SPOT analysis of membrane-synthesized peptides probed with Myo5 SH3 domain, normalized value.
Where [2] appears, read: SPOT analysis of cellulose-bound peptides probed with Myo5 SH3 domain, normalized value.
[3] abbreviates: SPOT analysis of membrane-bound peptides, normalized value (see methods).
The mark [4] stands for this setting: SPOT analysis of cellulose-bound 14-mer yeast proteome peptides, normalized value, mean where the peptide was synthesized more than once.

Take RYPFRMIPELPPKR: under setting [1], the “The normalized value in BLU units (SPOT analysis, Myo5 SH3)” value amounted to 3574.9 BLU.

With EFQSKSSPVPPASE, the “The normalized value in BLU units (SPOT analysis, Myo5 SH3)” value under setting [1] turned out to be 78.8 BLU.

For ALKSLSNPSSPWQQ, the “The normalized value in BLU units (SPOT analysis, Myo5 SH3)” value under setting [2] is 30.3 BLU.

In the case of EFLIKEDPDLPPQG, under setting [3], the “The normalized value in BLU units” value is given as 175.4 BLU.

On to PLTTLPPPRLPSIQ, for which the “The normalized value in BLU units” value under setting [4] turned out to be 2788.2 BLU.

In the case of TQPVRKNPEAPARR, the “The normalized value in BLU units” value under setting [3] was 232.1 BLU.

For IGKSKSAPPIPEDT, the “The normalized value in BLU units” value under setting [4] amounted to 243.5 BLU.

For the sequence PETRMDLPFSPEVN, under setting [2], the “The normalized value in BLU units (SPOT analysis, Myo5 SH3)” value came out at 130.3 BLU.

With IMDAKFHPFKPQLF, the “The normalized value in BLU units” value under setting [4] amounted to 246.2 BLU.

As to EADGLVQPVVPDKV, under setting [4], the “The normalized value in BLU units” value is listed as 75.1 BLU.

As to SYISRKYPRAPAFI, under setting [1], the “The normalized value in BLU units (SPOT analysis, Myo5 SH3)” value is 740.2 BLU.

Turning to PLFGLSIPKTPTLK, the “The normalized value in BLU units (SPOT analysis, Myo5 SH3)” value under setting [2] turned out to be 121.7 BLU.

With YYYYKHYPNMPPIN, the “The normalized value in BLU units (SPOT analysis, Myo5 SH3)” value under setting [1] is 287.9 BLU.

As for GWPVYNYPMQPTTE, the “The normalized value in BLU units (SPOT analysis, Myo5 SH3)” value under setting [2] stood at 167.9 BLU.

Regarding AELFLRRPIFPGRD, the “The normalized value in BLU units (SPOT analysis, Myo5 SH3)” value under setting [2] turned out to be 215.9 BLU.

On to KLPKKFPPPTPLLE, for which the “The normalized value in BLU units” value under setting [3] is listed as 19656.3 BLU.

AKLHRTKPVKPLSK: under setting [3], the “The normalized value in BLU units” value is reported as 501.8 BLU.

As to ETKKKWQPLPPEPL, the “The normalized value in BLU units (SPOT analysis, Myo5 SH3)” value under setting [1] was 255.8 BLU.

Turning to HPSGLNSPKLPPLP, the “The normalized value in BLU units (SPOT analysis, Myo5 SH3)” value under setting [2] is recorded as 456.8 BLU.

As to DNELKDEPEPPNLI, the “The normalized value in BLU units (SPOT analysis, Myo5 SH3)” value under setting [1] came out at 179.2 BLU.

On to LLVTKERPRFPEDD, for which the “The normalized value in BLU units” value under setting [3] was 33.7 BLU.

Regarding TILERLTPLVPNNL, the “The normalized value in BLU units” value under setting [3] was 249.4 BLU.

Consider FHPEKLTPYTPMTG, for which, under setting [1], the “The normalized value in BLU units (SPOT analysis, Myo5 SH3)” value is reported as 96.5 BLU.

As to RFSSRRAPIAPSGK, the “The normalized value in BLU units” value under setting [4] amounted to 564.4 BLU.

On to GWVVYPPPPKPSYN, for which, under setting [2], the “The normalized value in BLU units (SPOT analysis, Myo5 SH3)” value was determined as 452.7 BLU.

Consider SLCALVGPVIPHTI, for which the “The normalized value in BLU units” value under setting [4] amounted to 28.4 BLU.

As for FLSYMSEPKYPSNE, the “The normalized value in BLU units” value under setting [4] was 141.6 BLU.

Consider GDHPKGPPPPPPPD, for which the “The normalized value in BLU units (SPOT analysis, Myo5 SH3)” value under setting [1] turned out to be 40130.9 BLU.

QFALKNTPITPGSC: the “The normalized value in BLU units” value under setting [3] is reported as 111.3 BLU.

KWKSLFPPFFPCDI: the “The normalized value in BLU units (SPOT analysis, Myo5 SH3)” value under setting [2] is reported as 241.7 BLU.

For the sequence LPEKKNSPTTPSVF, the “The normalized value in BLU units” value under setting [3] is 102.5 BLU.

Take YKNRKNLPTIPIRL: the “The normalized value in BLU units (SPOT analysis, Myo5 SH3)” value under setting [1] worked out at 960.6 BLU.

TPTHHHIPHIPNQN: under setting [4], the “The normalized value in BLU units” value is reported as 147.9 BLU.

Regarding VKRPRLNPFLPRDE, the “The normalized value in BLU units” value under setting [3] is reported as 1186.3 BLU.

Regarding KEQNWKHPLLPLLK, the “The normalized value in BLU units (SPOT analysis, Myo5 SH3)” value under setting [2] is listed as 321.0 BLU.

PPPPLPPPLFPSSS: under setting [2], the “The normalized value in BLU units (SPOT analysis, Myo5 SH3)” value was determined as 38483.6 BLU.

As for KLPDLKLPPSPVPS, the “The normalized value in BLU units” value under setting [4] was determined as 231.2 BLU.

With LTIFKRPPKQPGHQ, the “The normalized value in BLU units” value under setting [3] is recorded as 702.9 BLU.

Regarding FGTAKILPEEPSNT, under setting [1], the “The normalized value in BLU units (SPOT analysis, Myo5 SH3)” value worked out at 153.4 BLU.

On to ELRTLFVPLIPSVT, for which, under setting [4], the “The normalized value in BLU units” value was found to be 293.5 BLU.

With FYKEKAKPLEPILD, the “The normalized value in BLU units” value under setting [3] was found to be 87.7 BLU.

On to GIMIKAKPSSPYTY, for which, under setting [1], the “The normalized value in BLU units (SPOT analysis, Myo5 SH3)” value is 235.9 BLU.

On to QEISLIDPSTPDKA, for which the “The normalized value in BLU units” value under setting [4] was determined as 155.1 BLU.

In the case of KFPLMDKPSIPTLR, the “The normalized value in BLU units (SPOT analysis, Myo5 SH3)” value under setting [2] amounted to 431.6 BLU.

In the case of NKPKRKRPAPPKKK, the “The normalized value in BLU units (SPOT analysis, Myo5 SH3)” value under setting [1] amounted to 872.0 BLU.

On to PYMYKYLPRFPNLK, for which the “The normalized value in BLU units” value under setting [4] turned out to be 382.1 BLU.

As to LNGLKSSPADPHLS, under setting [3], the “The normalized value in BLU units” value worked out at 152.9 BLU.

ILPVLNIPLPPQEK: the “The normalized value in BLU units (SPOT analysis, Myo5 SH3)” value under setting [2] was determined as 21.6 BLU.

For the sequence NSFSKNDPNFPILK, under setting [3], the “The normalized value in BLU units” value is 160.5 BLU.

The values are drawn from paper PMC314469, “Protein Interaction Networks by Proteome Peptide Scanning” (PLoS Biology, 2004).
